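Following 48 hours of exposure in 96-well plates, responses at five concentrations were used to interpolate endpoints linearly. Here, GI50 denotes the concentration required for 50% inhibition of growth.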 Calls of active or inactive are those of the source. No stated cut-off is given here; in the data, active = GI50 up to about 1.1 µM and inactive = higher. Where a SMILES comes first, the peptide text is derived from it. Bridges are numbered along the chain shown (N, C = ends). The star is where a group is joined. Cbz = O=C(OCc1ccccc1)*
How the values were obtained:
Experiment in all cases: inhibition of tumour cell growth, NCI panel, 48 h
NCI-H522 = tested on: NCI-H522
UO-31 = tested on: UO-31
CCRF-CEM = tested on: CCRF-CEM
SF-295 = tested on: SF-295
NCI-H460 = tested on: NCI-H460
NCI-H226 = tested on: NCI-H226
SNB-19 = tested on: SNB-19
786-0 = tested on: 786-0
HOP-92 = tested on: HOP-92
MOLT-4 = tested on: MOLT-4
ACHN = tested on: ACHN
CAKI-1 = tested on: CAKI-1
SF-539 = tested on: SF-539
HCT-116 = tested on: HCT-116
RXF 393 = tested on: RXF 393
COLO 205 = tested on: COLO 205
SK-MEL-2 = tested on: SK-MEL-2
RPMI-8226 = tested on: RPMI-8226
TK-10 = tested on: TK-10
HCC 2998 = tested on: HCC 2998

SMILES | GI50 (NCI-H522) | GI50 (UO-31) | GI50 (CCRF-CEM) | GI50 (SF-295) | GI50 (NCI-H460) | GI50 (NCI-H226) | GI50 (SNB-19) | GI50 (786-0) | GI50 (HOP-92) | GI50 (MOLT-4) | GI50 (ACHN) | GI50 (CAKI-1) | GI50 (SF-539) | GI50 (HCT-116) | GI50 (RXF 393) | GI50 (COLO 205) | GI50 (SK-MEL-2) | GI50 (RPMI-8226) | GI50 (TK-10) | GI50 (HCC 2998)
CC12CC(=O)C3C(CCC4=CC(=O)CCC43C)C1CC=C2CC(=O)O (stereo not drawn) | > 100 µM (inactive) | > 100 µM (inactive) | > 100 µM (inactive) | > 100 µM (inactive) | > 100 µM (inactive) | > 100 µM (inactive) | > 100 µM (inactive) | > 100 µM (inactive) | > 100 µM (inactive) | > 100 µM (inactive) | > 100 µM (inactive) | > 100 µM (inactive) | > 100 µM (inactive) | > 100 µM (inactive) | > 100 µM (inactive) | > 100 µM (inactive) | > 100 µM (inactive) | > 100 µM (inactive) | > 100 µM (inactive) | 
O=c1[nH]c2cc(-c3ccccc3)nc-2nn1-c1c(Cl)cc(Cl)cc1Cl | 28.8 µM (inactive) | 22.3 µM (inactive) | 28.6 µM (inactive) | 32.1 µM (inactive) | 30.4 µM (inactive) | 23.7 µM (inactive) | 33.1 µM (inactive) | 30.8 µM (inactive) | 31.5 µM (inactive) | 22.5 µM (inactive) |  | 27.5 µM (inactive) | 19.4 µM (inactive) | 22.4 µM (inactive) |  | 15.1 µM (inactive) | 26.5 µM (inactive) | 24.3 µM (inactive) | 28.6 µM (inactive) | 4.03 µM (inactive)
C[C@]12CC[C@H](OC(=O)Nc3ccccc3)CC1=CC[C@@H]1C2CC[C@]2(C)/C(=N/OC(=O)Nc3ccccc3)CCC12 (stereo partly drawn) |  | 1.92 µM (inactive) | 2.83 µM (inactive) | 10 µM (inactive) | 25.6 µM (inactive) |  | 76.2 µM (inactive) | > 100 µM (inactive) | 20.1 µM (inactive) | 5.05 µM (inactive) | 7.14 µM (inactive) | 1.81 µM (inactive) | > 100 µM (inactive) | 4.18 µM (inactive) |  | 4.49 µM (inactive) | > 100 µM (inactive) | 5.57 µM (inactive) | 6.61 µM (inactive) | > 100 µM (inactive)
O=[N+]([O-])c1ccc2c(c1)C1=C(CO2)Cc2ccccc2O1 | 22.4 µM (inactive) | 13.7 µM (inactive) | 23.6 µM (inactive) | 37.8 µM (inactive) |  | 26.2 µM (inactive) |  | 17.4 µM (inactive) | 23.9 µM (inactive) | > 10 µM (inactive) | 15.5 µM (inactive) | 17.6 µM (inactive) | 23.9 µM (inactive) | 16.3 µM (inactive) |  | 16.8 µM (inactive) | 37.9 µM (inactive) | 36.6 µM (inactive) | 26.5 µM (inactive) | 19.7 µM (inactive)
COCCCNC(=O)C1C(=O)C(=O)N(CCCOC)C1=O (stereo not drawn) | > 100 µM (inactive) | > 100 µM (inactive) | > 100 µM (inactive) | > 100 µM (inactive) |  | > 100 µM (inactive) | > 100 µM (inactive) | > 100 µM (inactive) | > 100 µM (inactive) | > 100 µM (inactive) | > 100 µM (inactive) | > 100 µM (inactive) | > 100 µM (inactive) | > 100 µM (inactive) |  | > 100 µM (inactive) | > 100 µM (inactive) | > 100 µM (inactive) | > 100 µM (inactive) | > 100 µM (inactive)
O=C1N/C(=N/N=C/c2ccccc2)N/C1=C\c1c[nH]c2ccccc12 | 74.3 µM (inactive) | 71.6 µM (inactive) | 11.4 µM (inactive) | > 100 µM (inactive) | 61 µM (inactive) | 72.6 µM (inactive) | 22.8 µM (inactive) | 41.5 µM (inactive) | > 100 µM (inactive) | 25.1 µM (inactive) | > 100 µM (inactive) | > 100 µM (inactive) | > 100 µM (inactive) | > 100 µM (inactive) | > 100 µM (inactive) | 60.7 µM (inactive) | > 100 µM (inactive) | 7.52 µM (inactive) | > 100 µM (inactive) | 
C=CCNC(=O)N(CCCC(NC(C)=O)C(=O)NCc1ccccc1)Cc1ccccc1 (stereo not drawn) | > 100 µM (inactive) | > 100 µM (inactive) | > 100 µM (inactive) | > 100 µM (inactive) | > 100 µM (inactive) | > 100 µM (inactive) | > 100 µM (inactive) | > 100 µM (inactive) | 83 µM (inactive) | > 100 µM (inactive) | > 100 µM (inactive) | > 100 µM (inactive) | > 100 µM (inactive) |  | > 100 µM (inactive) | > 100 µM (inactive) | > 100 µM (inactive) | > 100 µM (inactive) | > 100 µM (inactive) | 
COc1cc(/C=N\O)cc(/C=N/O)c1O | 75.9 µM (inactive) | 5.94 µM (inactive) | 12.1 µM (inactive) | 17.1 µM (inactive) | 40.2 µM (inactive) | 24.2 µM (inactive) | 47.6 µM (inactive) |  | 21.1 µM (inactive) | 25.7 µM (inactive) | 26.2 µM (inactive) | 28.6 µM (inactive) | 24.4 µM (inactive) | 33.4 µM (inactive) | 23.6 µM (inactive) | 22.5 µM (inactive) | 25.8 µM (inactive) | 15.5 µM (inactive) | > 100 µM (inactive) | 
N=C(N)N/N=C(/CC1OC(=O)c2ccccc21)c1ccc2ccccc2c1 (stereo not drawn) | 14.2 µM (inactive) | 17.8 µM (inactive) | 15.1 µM (inactive) | 23.8 µM (inactive) | 16.4 µM (inactive) | 13.7 µM (inactive) | > 100 µM (inactive) | 17.1 µM (inactive) | 22 µM (inactive) | 23.6 µM (inactive) | 18.9 µM (inactive) | > 100 µM (inactive) | 13.2 µM (inactive) |  |  | 19.6 µM (inactive) | 46.9 µM (inactive) | 17.1 µM (inactive) | 18.1 µM (inactive) | 17.3 µM (inactive)
N#CC1CNC(N)NC1N (stereo not drawn) | > 100 µM (inactive) |  | < 0.01 µM (active) | > 100 µM (inactive) | > 100 µM (inactive) | > 100 µM (inactive) | > 100 µM (inactive) | > 100 µM (inactive) | > 100 µM (inactive) |  | > 100 µM (inactive) | > 100 µM (inactive) | > 100 µM (inactive) | > 100 µM (inactive) | > 100 µM (inactive) | > 100 µM (inactive) | > 100 µM (inactive) | > 100 µM (inactive) | > 100 µM (inactive) | 
O=c1[nH]c(Br)nc2c(N3CCCCC3)c[nH]c12 | 28.3 µM (inactive) | > 100 µM (inactive) | > 100 µM (inactive) | > 100 µM (inactive) | > 100 µM (inactive) | > 100 µM (inactive) | > 100 µM (inactive) | > 100 µM (inactive) | > 100 µM (inactive) | 29.5 µM (inactive) | > 100 µM (inactive) | > 100 µM (inactive) | > 100 µM (inactive) | > 100 µM (inactive) | > 100 µM (inactive) | > 100 µM (inactive) | > 100 µM (inactive) | > 100 µM (inactive) | > 100 µM (inactive) | 
O=C(Cc1nc2ccccc2o1)C(=O)Nc1cccc(C(F)(F)F)c1 | > 100 µM (inactive) | > 100 µM (inactive) | > 100 µM (inactive) | > 100 µM (inactive) | > 100 µM (inactive) | > 100 µM (inactive) | > 100 µM (inactive) | > 100 µM (inactive) | > 100 µM (inactive) | > 100 µM (inactive) | > 100 µM (inactive) | > 100 µM (inactive) | > 100 µM (inactive) | > 100 µM (inactive) |  | > 100 µM (inactive) | > 100 µM (inactive) | > 100 µM (inactive) | > 100 µM (inactive) | > 100 µM (inactive)
COC(=O)C1CCCCNC(=O)CCC(NC(=O)OCc2ccccc2)C(=O)N1 (stereo not drawn) (Cbz-Glu-Lys-OMe; lactam 1-2; configuration not given here) | > 100 µM (inactive) | > 100 µM (inactive) | > 100 µM (inactive) | 50.1 µM (inactive) | > 100 µM (inactive) | > 100 µM (inactive) | 66.7 µM (inactive) | 43.6 µM (inactive) | 43.6 µM (inactive) | > 100 µM (inactive) | > 100 µM (inactive) | > 100 µM (inactive) | > 100 µM (inactive) | > 100 µM (inactive) | 25.5 µM (inactive) | > 100 µM (inactive) | > 100 µM (inactive) | > 100 µM (inactive) | > 100 µM (inactive) | 
c1ccc2c(Cc3c[nH]c4ccccc34)c[nH]c2c1 [ARUNDINE] | 30.5 µM (inactive) | 14.1 µM (inactive) | 12.8 µM (inactive) | 19.9 µM (inactive) | 19 µM (inactive) | 2.14 µM (inactive) | 21.7 µM (inactive) | 18.5 µM (inactive) | 16 µM (inactive) | 13.5 µM (inactive) | > 100 µM (inactive) | 15.9 µM (inactive) |  | 17.1 µM (inactive) | 15.6 µM (inactive) | 13.6 µM (inactive) | 22.8 µM (inactive) | 20.2 µM (inactive) | 19.4 µM (inactive) | 
CC[C@@H](C(=O)[C@@H](C)[C@@H](O)[C@H](C)CCc1ccc(C)c(O)c1C(=O)O)[C@H]1O[C@](CC)([C@H]2CC[C@](O)(CC)[C@H](C)O2)C[C@@H]1C [LASALOCID A SODIUM] | 1.01 µM (active) | 3.17 µM (inactive) | 0.695 µM (active) | 1.56 µM (inactive) | 2.04 µM (inactive) | 3.05 µM (inactive) | 1.3 µM (inactive) | 2.9 µM (inactive) | 1.69 µM (inactive) | 1.1 µM (active) | 2.64 µM (inactive) | 1.84 µM (inactive) | 1.15 µM (inactive) | 1.48 µM (inactive) |  | 1.1 µM (active) | 1.85 µM (inactive) | 1.2 µM (inactive) | 2.79 µM (inactive) | 1.05 µM (active)
